Data published in PubChem BioAssay AID2060511 (Molecular Pharmacology Branch, DTP, NCI, 2025).

Tested on: 422866-222-R5-J1-PDC spheroids with HUVEC/MSC, viability
Test: Anticancer human tumor 422866-222-R5-J1-PDC patient-derived pancreatic adenocarcinoma cell line growth inhibition [GQUAD]
Settings: for IC50: curve of first compound; for viability, T/C: stronger effect = lower value
In short: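 Multi-cell-type spheroids of tumor cells with HUVEC and mesenchymal stem cells, treated with drug combinations. Concentrations descend in half-log steps from near clinical Cmax, or from 10 microM where Cmax is unknown; viability read-out.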
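Note: spheroids exposed to compounds for seven days before reading.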
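Throughout, for viability, T/C: percent viability relative to DMSO vehicle control taken as 100%.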

O=c1[nH]cc(F)c(=O)[nH]1 + Cc1cnc(CNC(=O)c2c(=O)c3ccc(N4CCCN(C)CC4)nc3n3c2sc2ccccc23)cn1
IC50 (second compound 0.0316 µM): > 10 µM
IC50 (second compound 0.1 µM): > 10 µM
IC50 (second compound 0.316 µM): > 10 µM
IC50 (second compound 1 µM): > 10 µM
IC50 (second compound 3.16 µM): > 10 µM
IC50 (second compound 10 µM): > 10 µM
viability, T/C (second compound 0.0316 µM, first compound 0.0316 µM): 90%
viability, T/C (second compound 0.0316 µM, first compound 0.1 µM): 93.1%
viability, T/C (second compound 0.0316 µM, first compound 0.316 µM): 88.2%
viability, T/C (second compound 0.0316 µM, first compound 1 µM): 88.8%
viability, T/C (second compound 0.0316 µM, first compound 3.16 µM): 78%
viability, T/C (second compound 0.0316 µM, first compound 10 µM): 78.7%
viability, T/C (second compound 0.1 µM, first compound 0.0316 µM): 94.5%
viability, T/C (second compound 0.1 µM, first compound 0.1 µM): 79.6%
viability, T/C (second compound 0.1 µM, first compound 0.316 µM): 89.4%
viability, T/C (second compound 0.1 µM, first compound 1 µM): 95.5%
viability, T/C (second compound 0.1 µM, first compound 3.16 µM): 85.8%
viability, T/C (second compound 0.1 µM, first compound 10 µM): 87.5%
viability, T/C (second compound 0.316 µM, first compound 0.0316 µM): 85.6%
viability, T/C (second compound 0.316 µM, first compound 0.1 µM): 69.4%
viability, T/C (second compound 0.316 µM, first compound 0.316 µM): 96.1%
viability, T/C (second compound 0.316 µM, first compound 1 µM): 83.3%
viability, T/C (second compound 0.316 µM, first compound 3.16 µM): 89.7%
viability, T/C (second compound 0.316 µM, first compound 10 µM): 92.2%
viability, T/C (second compound 1 µM, first compound 0.0316 µM): 88.6%
viability, T/C (second compound 1 µM, first compound 0.1 µM): 85.8%
viability, T/C (second compound 1 µM, first compound 0.316 µM): 85.2%
viability, T/C (second compound 1 µM, first compound 1 µM): 104%
viability, T/C (second compound 1 µM, first compound 3.16 µM): 105%
viability, T/C (second compound 1 µM, first compound 10 µM): 104%
viability, T/C (second compound 3.16 µM, first compound 0.0316 µM): 83.1%
viability, T/C (second compound 3.16 µM, first compound 0.1 µM): 85.2%
viability, T/C (second compound 3.16 µM, first compound 0.316 µM): 93.5%
viability, T/C (second compound 3.16 µM, first compound 1 µM): 83.3%
viability, T/C (second compound 3.16 µM, first compound 3.16 µM): 99.8%
viability, T/C (second compound 3.16 µM, first compound 10 µM): 82.8%
viability, T/C (second compound 10 µM, first compound 0.0316 µM): 81.8%
viability, T/C (second compound 10 µM, first compound 0.1 µM): 78.4%
viability, T/C (second compound 10 µM, first compound 0.316 µM): 85.7%
viability, T/C (second compound 10 µM, first compound 1 µM): 80.6%
viability, T/C (second compound 10 µM, first compound 3.16 µM): 87.5%
viability, T/C (second compound 10 µM, first compound 10 µM): 76.4%
